{"source": "patent US4691018A", "about": "“Pyridine derivatives and their use as anti-allergic agents” (Chugai Seiyaku Kabushiki Kaisha, priority 1985, dated 1987)", "key": {"[1]": {"test_system": "passive cutaneous anaphylaxis (PCA)", "assay": "Inhibitory effect on passive cutaneous anaphylaxis (PCA), oral", "type": "in vivo, rat (SD/JCL strain)", "conditions": "rat", "experimental": "Rat antiserum to egg albumin was prepared by the method of I. Mota, \"Immunology\" 7, 681-699 (1964), and 400 folds diluted. The diluted antiserum (0.1 ml) was injected into dorsal skin of rats (SD/JCL strain, male, 9-week-old) to subject them to passive immunization.\nForty-eight to seventy-two hours later, each rat was orally given a compound of this invention suspended in a 1% gum arabic aqueous solution. Five minutes after the administration, each rat was intravenously injected at its tail with 1 ml of a mixture containing equal volumes of a 0.5% solution of egg albumin in saline and 0.5% solution of Evans Blue in saline. Thirty minutes later, each rat was beheaded and the extravasated dye was quantitatively measured by the method of Katayama et al., \"Microbiol. Immunol\" 22, 89-101 (1978).\nThe percent inhibition was calculated by comparing the amount of Evans Blue leaking in the test groups with that in the control group in which a gum arabic aqueous solution containing no test compound was administered to the test animal.\nIn Table 1, inhibition efficiencies of 30 to 50%, 51-70%, 71-90% and 91% or more are represented by the ratings +, ++, +++ and ++++, respectively. The numbers given to the test compounds correspond to the Example Nos."}, "[2]": {"test_system": "IgE antibody", "assay": "Inhibitory effect on production of IgE antibody, oral, X-ray exposed mice immunized with DNP-KLH", "type": "in vivo, mouse (SJL/J strain)", "conditions": "mouse", "experimental": "Inhibitory effect on production of IgE antibody SJL/J strain mice (8-week-old) were exposed to X-rays of 400 R, and concurrently injected intraperitoneally a mixture of 1 μg of Keyhole Limpet Hemocyanin (KLH) with 4 mg of an aluminum hydroxide gel. One week later, the mice were intraperitoneally administered with a mixture of 1 μg of dinitrophenyl group-binding KLH (DNP-KLH) with 4 mg of an aluminum hydroxide gel. From the next day of the immunization with DNP-KLH, each of the mice was forced to be orally administered by using gastric catherter with a test compound suspended in a 1% gum arabic aqueous solution. The mice in a control group were administered with only the gum arabic solution.\nThe serum was sampled from each of the mice treated above, and the amount of IgE therein was measured by the \"Rat 48-hour PCA test\" similarly as described in Experiment 1. The amount of IgE was expressed in terms of the maximum dilution of the serum by which a cutaneous reaction appeared in an area with a diameter of 5 mm or more to be observed.\nThe percent inhibition was indicated as the ratio of the amount of IgE of the test group to that of the control group.\nIn Table 2, inhibition efficiencies of 25-50%, 50-75% and 75% or more are represented by ratings ++, +++ and ++++, respectively. The numbers given to the test compounds correspond to the Example Nos."}}}
{"smiles": "CCOC(=O)c1cc(C(=O)NC)nc(C(=O)NC)c1", "note": "[Compound 1, ethyl 2,6-bis(N-methylcarbamoyl)pyridine-4-carboxylate]", "values": [{"measurement": "Percent Inhibition", "setting": "[1]; dose 5 mg/kg", "value": "++++ (91% or more)"}, {"measurement": "Percent Inhibition", "setting": "[2]; dose 5 mg/kg", "value": "++++ (75% or more)"}]}
{"smiles": "CNC(=O)c1cc(C(=O)O)cc(C(=O)NC)n1", "note": "[Compound 2, 2,6-bis(N-methylcarbamoyl)pyridine-4-carboxylic acid]", "values": [{"measurement": "Percent Inhibition", "setting": "[1]; dose 50 mg/kg", "value": "+ (30 to 50%)"}, {"measurement": "Percent Inhibition", "setting": "[2]; dose 50 mg/kg", "value": "++++ (75% or more)"}]}
{"smiles": "CCCOC(=O)c1cc(C(=O)NC)nc(C(=O)NC)c1", "note": "[Compound 4]", "values": [{"measurement": "Percent Inhibition", "setting": "[1]; dose 10 mg/kg", "value": "++ (51-70%)"}]}
{"smiles": "CNC(=O)c1cc(C(=O)OC(C)C)cc(C(=O)NC)n1", "note": "[Compound 5]", "values": [{"measurement": "Percent Inhibition", "setting": "[2]; dose 5 mg/kg", "value": "+++ (50-75%)"}]}
{"smiles": "CNC(=O)c1cc(C(=O)OCCOC)cc(C(=O)NC)n1", "note": "[Compound 7]", "values": [{"measurement": "Percent Inhibition", "setting": "[1]; dose 10 mg/kg", "value": "++ (51-70%)"}]}
{"smiles": "CNC(=O)c1cc(C(=O)OCCO)cc(C(=O)NC)n1", "note": "[Compound 8, 2-hydroxyethyl 2,6-bis(N-methylcarbamoyl)pyridine-4-carboxylate]", "values": [{"measurement": "Percent Inhibition", "setting": "[1]; dose 10 mg/kg", "value": "++ (51-70%)"}, {"measurement": "Percent Inhibition", "setting": "[2]; dose 5 mg/kg", "value": "++ (25-50%)"}]}
{"smiles": "CCOC(=O)c1cc(C(=O)NC)nc(C(=O)NC)c1N", "note": "[Compound 10, ethyl 3-amino-2,6-bis(N-methylcarbamoyl)pyridine-4-carboxylate]", "values": [{"measurement": "Percent Inhibition", "setting": "[1]; dose 10 mg/kg", "value": "+++ (71-90%)"}, {"measurement": "Percent Inhibition", "setting": "[2]; dose 10 mg/kg", "value": "++++ (75% or more)"}]}
{"smiles": "CCOC(=O)c1cc(C(=O)NC)nc(C(=O)NC)c1NC", "note": "[Compound 11, ethyl 3-methylamino-2,6-bis(N-methylcarbamoyl)pyridine-4-carboxylate]", "values": [{"measurement": "Percent Inhibition", "setting": "[1]; dose 10 mg/kg", "value": "++++ (91% or more)"}, {"measurement": "Percent Inhibition", "setting": "[2]; dose 5 mg/kg", "value": "++++ (75% or more)"}]}
